Read-outs that look alike come from different tables or passages of the source. Bounds are passed on as bounds.

This is an account of results in PMC5814210, “2-Amino-3-methylcarboxy-5-heptyl-thiophene (TJ191) is a selective anti-cancer small molecule that targets low TβRIII-expressing malignant T-cell leukemia/lymphoma cells” (Oncotarget, 2017).

Data set [1] deals with CEM cells. The experiment in a line: Proliferation assay, CEM cells. The data set is classed as cell-based, human. As to conditions: three days, cell counting, read-out: IC50 (50% inhibition of cell growth). The method, then: (§1) PBMCs were isolated from Buffy coats obtained from healthy blood donors (after receiving informed consent) using lymphoprep according to the manufacturer’s instructions. PBMCs were then stimulated with interleukin-2 (2 ng/ml, R&D systems, Abingdon, UK) and phytohemagglutinin (2 µg/ml, Sigma-Aldrich) for three days and used in the experiments described below. Human T-cell leukemia/lymphoma cell lines CCRF-CEM (referred to as CEM), JURKAT, MOLT-3, MOLT-4, SUP-T1, MT-2, MT-4, C8166, HSB-2, and HUT-78 were obtained from ATCC (Middlesex, UK). Cells were cultured in RPMI-1640 medium supplemented with 10% fetal bovine serum (FBS, Gibco, Erembodegem, Belgium) and 2 mM L-glutamine (Gibco). […] After three days, cells were counted using the coulter cell counter (Analis, Belgium). The IC50 value refers to the compound concentration that causes 50% inhibition of cell growth.

Another data set deals with JURKAT cells. The experiment in a line: Proliferation assay, JURKAT cells. The class given is cell-based, human. As to conditions: three days, cell counting, read-out: IC50 (50% inhibition of cell growth). The method, then: as §1
For a further data set, the system named is MOLT-3 cells. Kind of data set: Proliferation assay, MOLT-3 cells. As to conditions: three days, cell counting, read-out: IC50 (50% inhibition of cell growth). The data set is classed as cell-based, human. The method, then:
as §1

In another data set the test system is MOLT-4 cells. The experiment in a line: Proliferation assay, MOLT-4 cells. The class given is cell-based, human. As to conditions: three days, cell counting, read-out: IC50 (50% inhibition of cell growth). As to the method: as §1
The next data set deals with SUP-T1 cells. The experiment in a line: Proliferation assay, SUP-T1 cells. The class given is cell-based, human. As to conditions: three days, cell counting, read-out: IC50 (50% inhibition of cell growth). The method, then: as §1
The subject of another data set is MT-2 cells. Kind of data set: Proliferation assay, MT-2 cells. The data set is classed as cell-based, human. As to conditions: three days, cell counting, read-out: IC50 (50% inhibition of cell growth). The method, then:
as §1

A further data set relates to C8166 cells. The experiment in a line: Proliferation assay, C8166 cells. The data set is classed as cell-based, human. The following applies: three days, cell counting, read-out: IC50 (50% inhibition of cell growth). As to the method:
as §1

The test system of a further data set is HSB-2 cells. Kind of data set: Proliferation assay, HSB-2 cells. The data set is classed as cell-based, human. As to conditions: three days, cell counting, read-out: IC50 (50% inhibition of cell growth). The method, then:
as §1

In a further data set the test system is HUT-78 cells. Kind of data set: Proliferation assay, HUT-78 cells. The data set is classed as cell-based, human. As to the method:
as §1

The subject of the next data set is MT-4 cells. Kind of data set: Proliferation assay, MT-4 cells. The following applies: three days, cell counting, read-out: IC50 (50% inhibition of cell growth). The data set is classed as cell-based, human. As to the method:
as §1

The subject of data set [2] is CEM cells. Kind of data set: Apoptosis assay (caspase-3 activity, NucView substrate) in CEM cells. The class given is cell-based, human. The following applies: 0.3 µM, 24 h. The method, then: Figure 1 Cytostatic and cytotoxic activity of TJ191 in T-cell leukemia/lymphoma cells (A) Chemical structure of TJ191. (B) Effect of TJ191 on the growth of human T-cell leukemia/lymphoma cell lines. (C) Pro-apoptotic effect of TJ191 in CEM cells. Cells were incubated with TJ191 for 8 h or 24 h and apoptosis was determined based on caspase-3 activity using the NucView […] Caspase-3 substrate, according to the manufacturer’s instruction, and fluorescence microscopy (Axiovert 200 M inverted microscope, Zeiss). Left panel, representative fluorescence microscopy images are shown; scale bars, 50 µm. Right panel, quantification of the apoptosis rate is shown. Bars represent the mean percentage of cells stained positive for caspase-3 of three different sections; bars, ± S.E.M. Data are representative of two independent experiments.
6 × 10^5 CEM cells/well were seeded into 96-well plates and treated with TJ191 in the presence of 2 µM NucView 488 caspase substrate (Biotium, Hayward, CA). When cells undergo apoptosis, the caspase substrate is cleaved by activated caspase-3/7 to release the DNA dye NucView 488, which stains the nucleus with bright green fluorescence. Cells were fixed at indicated times in 2% paraformaldehyde for 10 min at room temperature and analyzed for NucView 488 staining using a Carl Zeiss Axiovert 200 M inverted microscope (Zeiss, Göttingen, Germany).

The next data set concerns CEM-R cells. Kind of data set: Proliferation assay, TJ191-selected resistant CEM cells (CEM-R). The class given is cell-based, human. As to conditions: selected one month at 100-fold IC50 concentration of TJ191; three days growth. The method, then: (§2) Human T-cell leukemia/lymphoma and prostate cancer cell lines were seeded into 96-well plates at a density of 60 × 10^3 and 20 × 10^3 cells/well respectively, and treated with 5-fold dilutions of TJ191, cladribine, 6-MP, ara-C, 6-TG, adriamycine or endoxan. 200 × 10^3 PBMCs/well were seeded and treated as indicated above. After three days, cells were counted using the coulter cell counter (Analis, Belgium). The IC50 value refers to the compound concentration that causes 50% inhibition of cell growth.

In data set [3] the test system is TβRIII KO1 and KO2 HUT-78 cells. Kind of data set: Proliferation assay, TβRIII knock-out HUT-78 cells (KO1 and KO2). The data set is classed as cell-based, human. As to conditions: three days, cell counting. As to the method:
as §2

A further data set can be described thus: Water solubility. The data set is classed as physicochemical. As to conditions: precludes in vivo testing.
Data set [4] deals with PBMCs. Also noted: method as in PMID 28365318. As to conditions: read-out: IC50, growth of PBMCs; cited from earlier work.
The test system of data set [5] is primary human fibroblasts. Also noted: method as in PMID 28365318. The following applies: read-out: IC50, growth of primary human fibroblasts; cited from earlier work.
In a further data set the test system is tumor cell lines. Also noted: method as in PMID 28365318. As to conditions: cited from earlier work.
Data set [6] deals with PBMCs. The experiment in a line: Proliferation assay, PBMCs. The class given is cell-based, human. The following applies: PBMCs stimulated with IL-2 and phytohemagglutinin, three days, cell counting, read-out: IC50 (50% inhibition of cell growth). The method, then: PBMCs were isolated from Buffy coats obtained from healthy blood donors (after receiving informed consent) using lymphoprep according to the manufacturer’s instructions. PBMCs were then stimulated with interleukin-2 (2 ng/ml, R&D systems, Abingdon, UK) and phytohemagglutinin (2 µg/ml, Sigma-Aldrich) for three days and used in the experiments described below. Human T-cell leukemia/lymphoma cell lines CCRF-CEM (referred to as CEM), JURKAT, MOLT-3, MOLT-4, SUP-T1, MT-2, MT-4, C8166, HSB-2, and HUT-78 were obtained from ATCC (Middlesex, UK). Cells were cultured in RPMI-1640 medium supplemented with 10% fetal bovine serum (FBS, Gibco, Erembodegem, Belgium) and 2 mM L-glutamine (Gibco).
as §2

A word on the IC50: it is the concentration needed to halve the response being measured. With “2-amino-3-methylcarboxy-5-heptyl-thiophene [TJ191]”, the IC50 in the data set on CEM cells [1] came out at 130 ± 20 nM; in the data set with JURKAT cells it was 130 ± 80 nM; with MOLT-3 cells, 260 ± 190 nM; in the data set with MOLT-4 cells, 220 ± 110 nM; in the data set with SUP-T1 cells it was 1500 ± 20 nM; in the data set on MT-2 cells, 320 ± 86 nM. For the same compound, the IC50 in the data set on C8166 cells is 3100 ± 500 nM; in the data set on HSB-2 cells, 260 ± 160 nM; in the data set with HUT-78 cells (HUT-78 cells (parental), three days, cell counting, read-out: IC50 (50% inhibition of cell growth)), 17000 ± 10000 nM; in the data set on MT-4 cells, 47000 ± 5000 nM; with PBMCs [4] it was more than 100000 nM; in data set [5], more than 100000 nM. Also, the half-maximal inhibitory concentration (IC50) is approximately 60000 nM in the data set with tumor cell lines (drug-insensitive tumor cell lines, read-out: IC50 in drug-insensitive tumor cell lines) and approximately 100 nM with tumor cell lines (drug-sensitive tumor cell lines, read-out: IC50 in drug-sensitive tumor cell lines). Also, the “Fold less sensitive, parental HUT-78 versus CEM cells” value in the data set on HUT-78 cells (ratio of IC50 HUT-78 to IC50 CEM) was found to be 130 fold. The “Maximum apoptotic rate (cells positive for caspase-3)” value in the data set with CEM cells [2] was approximately 80%. Moreover, in the data set on CEM-R cells, the “Reduced sensitivity of CEM-R compared with wild-type CEM” value is on record as approximately 100 fold. Moreover, the “Change of IC50 in TβRIII KO1 and KO2 cells compared with parental or scrambled control HUT-78 cells” value in data set [3] was “reduced at least four- to five-fold”. Further, the Water solubility result in the data set “Water solubility” is given as “relative water insolubility”.

Regarding `Nc1nc2nc[nH]c2c(=S)[nH]1` [6-TG, 6-thioguanine], the IC50 in the data set on PBMCs [6] (Homo sapiens, PBMC, 72 h) came to 570 ± 270 nM.

Regarding `COc1cccc2c1C(=O)c1c(O)c3c(c(O)c1C2=O)C[C@@](O)(C(=O)CO)C[C@@H]3O[C@H]1C[C@H](N)[C@H](O)[C@H](C)O1` [adriamycine], the concentration for half-maximal inhibition (IC50) in the data set on PBMCs [6] was found to be 79 ± 62 nM.

As to `Nc1ccn([C@@H]2O[C@H](CO)[C@@H](O)[C@@H]2O)c(=O)n1` [ara-C, 1-β-D-arabinofuranosyl cytosine], in the data set on PBMCs [6] (Homo sapiens, PBMC, 72 h), the 50% inhibitory concentration (IC50) is 880 ± 600 nM.

With `Nc1nc(Cl)nc2c1ncn2[C@H]1C[C@H](O)[C@@H](CO)O1` [cladribine, Cladribine], the IC50 in the data set on PBMCs [6] (Homo sapiens, PBMC, 72 h) is 180 ± 90 nM.

As for `O=P1(N(CCCl)CCCl)NCCCO1` (stereo not drawn) [endoxan, cyclophosphamide, reference compound], the “Change of IC50 in TβRIII KO1 and KO2 cells compared with parental or scrambled control HUT-78 cells” value in data set [3] is reported as “no significant difference”.
